Data as given in PMC7915765, “Biochemical Characterization, Specificity and Inhibition Studies of HTLV-1, HTLV-2, and HTLV-3 Proteases” (Life, 2021).
*1 amine or outer side, *2 acyl side, *3 side chain or, on linkers, in order; H or OH if unused. Where a SMILES comes first, the peptide text is derived from it. Side-chain parts run from the residue outwards. [ ]: non-standard residue; d: D form. LeuΨ(CH2N)Pro = CC(C)C[C@@H](CN1CCC[C@H]1C(=O)[*:2])N[*:1]; X1 = CC(C)C[C@@H](CN([C@H](C(=O)[*:2])C(C)C)[*:1])N[*:3]

How the values were obtained:
HTLV-2 PR [1] = target: T1, HTLV-2 PR (Human T-cell leukemia virus 2, UniProt P03363); assay: biochemical
T1 sequence (P03363 447-571): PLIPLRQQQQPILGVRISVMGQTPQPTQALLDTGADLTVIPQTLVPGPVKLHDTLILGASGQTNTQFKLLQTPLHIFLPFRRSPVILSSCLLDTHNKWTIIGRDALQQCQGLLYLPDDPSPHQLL
Method: (§3) The reaction mixtures were prepared to contain 4.8 µL of substrate (in 0.40–0.43 mM final concentration), 0.2 µL of inhibitor, 5 µL of the enzyme, and 10 µL of a 2× incubation buffer. The substrates representing HTLV-2 and HTLV-3 MA/CA cleavage sites were used for HTLV-2 and HTLV-3 PRs, respectively. […] The inhibitors were dissolved in DMSO. Therefore, 0.2 µL of DMSO was added to the control samples.

HTLV-3 PR [2] = target: T2, HTLV-3 PR (Human T-cell leukemia virus 3, UniProt Q4U0X6); assay: biochemical
T2 sequence (Q4U0X6 431-553): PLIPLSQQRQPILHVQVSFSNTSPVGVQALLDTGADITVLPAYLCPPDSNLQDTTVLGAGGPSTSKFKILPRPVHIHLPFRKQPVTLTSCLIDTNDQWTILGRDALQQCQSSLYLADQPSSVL
Method: as §3

HTLV-2 PR [3] = target: T1, HTLV-2 PR; assay: Inhibition study with HIV-1 PIs, HTLV-2 PR; format: biochemical, human T-cell leukemia virus type 2; design: made in house; host or cells: E. coli BL21(DE3); conditions: inhibitor 1 µM final; for loss of activity: substrate HTLV-2 MA/CA 0.40–0.43 mM, DMSO control = 100%, n = 2
Method: The inhibitors were dissolved in DMSO.

HTLV-1 PR [4] = assay: Inhibition study with HIV-1 PIs, HTLV-1 PR; format: biochemical, human T-cell leukemia virus type 1; conditions: inhibitor 1 µM final
Method: (§1) The IB-268 (KTKVL-r-VVQPK) and IB-269 (APQVL-r-PVMHP) reduced peptide bond (-r-)-containing inhibitors, which were synthesized by Dr. Ivo Blaha (Ferring Leciva, Prague, Czech Republic).
(§2) The reaction mixtures were prepared to contain 4.8 µL of substrate (in 0.40–0.43 mM final concentration), 0.2 µL of inhibitor, 5 µL of the enzyme, and 10 µL of a 2× incubation buffer. The substrates representing HTLV-2 and HTLV-3 MA/CA cleavage sites were used for HTLV-2 and HTLV-3 PRs, respectively. In the case of HIV-1 PIs, we applied 100 µM inhibitor stocks, while 0.5–100 µM stocks of IB-268 and IB-269 were used for screening. The inhibitors were dissolved in DMSO. Therefore, 0.2 µL of DMSO was added to the control samples.

HTLV-3 PR [5] = target: T2, HTLV-3 PR; assay: Inhibition study with HIV-1 PIs, HTLV-3 PR; format: biochemical; design: made in house; host or cells: E. coli BL21(DE3), pET11a; conditions: inhibitor 1 µM final; for loss of activity: substrate HTLV-3 MA/CA 0.40–0.43 mM, DMSO control = 100%, n = 2
Method: as §1, §2

HTLV-1 PR [6] = test system: HTLV-1 PR; design: method as in 2 sources, ref [41] = [41]; PMID 15158589; doi:10.1016/j.jviromet.2004.03.001; 41. Bagossi P. Kádas J. Miklóssy G. Boross P. Weber I.T. Tözsér J. Development of a microtiter plate fluorescent assay for inhibition studies on the HTLV-1 and HIV-1 proteinases J. Virol. Methods 2004 ||| ref [28] = [28]; PMID 15102858; doi:10.1074/jbc.M401868200; 28. Kádas J. Weber I.T. Bagossi P. Miklóssy G. Boross P. Oroszlan S. Tözsér J. Narrow substrate specificity and sensitivity toward ligand-binding site mutations of human T-cell leukemia virus type 1 p; conditions: ref [28]; cited from earlier work
Source text: (a) Comparison of relative activities determined in the presence of HIV-1 PIs applied in a 1-µM final concentration. For control measurements, reaction mixtures contained no inhibitor. Activity determined in the presence of DMSO was considered to be 100%. Error bars represent SD (n = 2). […] We repeated these experiments in our system for HTLV-2 and HTLV-3 PRs.

[7] = test system: NF-κB transcriptional activation; design: method as in PMID 18316517; conditions: ATLL cells; ref [55]; cited from earlier work
ATLL cells = test system: ATLL cells; design: method as in PMID 16174765; conditions: ATLL cells ex vivo; ref [54]; cited from earlier work
[8] = ASPRV1; ref [51]; cited from earlier work
Method: The dependence of enzyme activity on pH was studied in a 4.5–8.0 range. […] Our results imply that the optimal pH of HTLV-1 PR is higher than it was determined previously by Ha et al. (pH 5.2–5.3). The optimal pH determined for HTLV PRs is similar to the slightly acidic pH optimum of retroviral and retroviral-like proteases, including the HIV-1 PR (pH 4.0–6.0 range), the BLV PR (pH 4.0–6.5 range), ...

Question: Which Ki (HTLV-2 PR [1]) does the source give for `CC(C)C[C@@H](CN[C@H](C(=O)N[C@H](C(=O)N[C@@H](CCC(N)=O)C(=O)N1CCC[C@H]1C(=O)N[C@@H](CCCCN)C(=O)O)C(C)C)C(C)C)NC(=O)[C@@H](NC(=O)[C@H](CCCCN)NC(=O)[C@@H](NC(=O)[C@@H](N)CCCCN)[C@@H](C)O)C(C)C` [IB-268] (H-[X1]([Val-Lys-Thr-Lys])VQPK-OH) here?
Answer: 37 nM

Question: And the Ki (HTLV-3 PR [2])?
Answer: 214 nM

Question: Which Ki (HTLV-2 PR [1]) does the source give for `CSCC[C@H](NC(=O)[C@@H](NC(=O)[C@@H]1CCCN1C[C@H](CC(C)C)NC(=O)[C@@H](NC(=O)[C@H](CCC(N)=O)NC(=O)[C@@H]1CCCN1C(=O)[C@H](C)N)C(C)C)C(C)C)C(=O)N[C@@H](Cc1c[nH]cn1)C(=O)N1CCC[C@H]1C(=O)O` [IB-269] (H-APQV[LeuΨ(CH2N)Pro]VMHP-OH) here?
Answer: 12 nM

Question: And the Ki (HTLV-3 PR [2])?
Answer: 14 nM

Question: Which results are given for `CC(C)CN(C[C@@H](O)[C@H](Cc1ccccc1)NC(=O)O[C@H]1CO[C@H]2OCC[C@H]21)S(=O)(=O)c1ccc(N)cc1` [darunavir]?
Answer: inhibitory effect (in words) (HTLV-2 PR [3]): highest inhibition; loss of activity (HTLV-2 PR [3]): < 50%; inhibitory effect (in words) (HTLV-1 PR [4]): highest inhibition; inhibitory effect (in words) (HTLV-3 PR [5]): highest inhibition; loss of activity (HTLV-3 PR [5]): < 50%

Question: What does the source list for `CC(C)(C)NC(=O)[C@@H]1CN(Cc2cccnc2)CCN1C[C@@H](O)C[C@@H](Cc1ccccc1)C(=O)N[C@H]1c2ccccc2C[C@H]1O` [indinavir]?
Answer: inhibitory effect (in words) (HTLV-2 PR [3]): highest inhibition; loss of activity (HTLV-2 PR [3]): < 50%; inhibitory effect (in words) (HTLV-1 PR [4]): highest inhibition; decrease of HTLV-1 PR activity (HTLV-1 PR [4]; DMSO control = 100%, n = 2): ~ 50%; inhibition of wild-type HTLV-1 PR (in words) (HTLV-1 PR [6]): relatively good inhibitors; inhibitory effect (in words) (HTLV-3 PR [5]): highest inhibition; loss of activity (HTLV-3 PR [5]): < 50%

Question: For `CC(C)c1nc(CN(C)C(=O)N[C@H](C(=O)N[C@@H](Cc2ccccc2)C[C@H](O)[C@H](Cc2ccccc2)NC(=O)OCc2cncs2)C(C)C)cs1` [ritonavir], which “inhibitory effect (in words)” value (HTLV-2 PR [3]) is on record?
Answer: did not inhibit

Question: What about the loss of activity (HTLV-2 PR [3]) of the same molecule?
Answer: < 50%

Question: And the “inhibitory effect (in words)” value (HTLV-1 PR [4])?
Answer: not an effective inhibitor

Question: What about the “inhibition of NF-κB transcriptional activation” value [7] of the same molecule?
Answer: ritonavir-dependent inhibition of NF-κB transcriptional activation

Question: And the anti-leukemic activity (ATLL cells)?
Answer: anti-leukemic activity against ATLL cells ex vivo

Question: And the “inhibitory effect (in words)” value (HTLV-3 PR [5])?
Answer: did not inhibit

Question: What about the loss of activity (HTLV-3 PR [5]) of the same molecule?
Answer: < 50%

B1: ASPRV1: human retroviral-like aspartic protease 1 (literature) (protein, UniProt Q53RT3 191-326, looked up)
Retroviral-like aspartic …: SMGKGYYLKGKIGKVPVRFLVDSGAQVSVVHPNLWEEVTDGDLDTLQPFENVVKVANGAEMKILGVWDTAVSLGKLKLKAQFLVANASAEEAIIGTDVLQDHNAILDFEHRTCTLKGKKFRLLPVGGSLEDEFDLE
Question: With B1 as the molecule, how does the pH optimum [8] read?
Answer: 6.27 ± 0.02
